Measurements published in patent publication US11464780B2, “Pyrazolopyrimidine derivative and use thereof” (Simcere Pharmaceutical Co. Ltd., priority 2018, dated 2022).
Read-outs that look alike come from different tables or passages of the source.

Legend:
Ros-G2032R = target: T1, Ros-G2032R (Homo sapiens, UniProt P08922, G2032R); assay: Kinase inhibitory activity (33P-ATP filter binding, Reaction Biology Corp.); type: biochemical; conditions: read-out: The half maximal inhibitory concentration IC50 on the kinases, Ros-G2032R
T1 construct: purchased Reaction Biology Corp. (contract assay)
How it was run: (§1)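 Radioactivity was read by filter binding. Activity was expressed as remaining activity relative to DMSO control, and IC50 came from dose-effect curve fitting.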

TrkA-G667C = target: T2, TrkA-G667C (Homo sapiens, UniProt P04629, G667C); assay: as above; type: biochemical; conditions: read-out: The half maximal inhibitory concentration IC50 on the kinases, TrkA-G667C
T2 construct: purchased Reaction Biology Corp. (contract assay)
How it was run: as §1

TrkC = target: T3, TrkC (Homo sapiens, UniProt Q16288); assay: as above; type: biochemical; conditions: read-out: The half maximal inhibitory concentration IC50 on the kinases, TrkC
T3 construct: purchased Reaction Biology Corp. (contract assay)
How it was run: as §1

ALK = target: T4, ALK (Homo sapiens, UniProt Q9UM73); assay: as above; type: biochemical; conditions: read-out: The half maximal inhibitory concentration IC50 on the kinases, ALK
T4 construct: purchased Reaction Biology Corp. (contract assay)
How it was run: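 Compounds (10 concentrations, 3-fold dilutions, 2% DMSO final) preincubated 20 min at room temperature with kinase and substrate in Hepes pH 7.5 buffer. Reaction started with ^33P-ATP, 120 min at room temperature; filter-binding radioactivity expressed as activity remaining versus DMSO control, IC50 from fitted dose-response curve.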

[1] = target: T5, Ba/F3 LMNA-NTRK1-WT stably transfected cell line (Homo sapiens, UniProt P04629); assay: Cell proliferation inhibition (CellTiter-Glo); type: cell-based; conditions: 72 hours, read-out: The half maximal inhibitory concentration IC50 against cells, Ba/F3 LMNA-NTRK1-WT
T5 construct: fused on or other part: P02545 (Prelamin-A/C)
How it was run: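 Stably transfected Ba/F3 cells (≥90% viable) were seeded overnight, then exposed in triplicate to a 9-point, 3-fold series (highest 10 μM, prepared as 10× solutions) for 72 h at 37 °C, 5% CO2. Viability was read by ATP luminescence, and IC50 came from a nonlinear sigmoidal fit.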

[2] = target: T6, Ba/F3 LMNA-NTRK1-F589L stably transfected cell line (Homo sapiens, UniProt P04629, F589L, cells depend on it); assay: Cell proliferation inhibition (CellTiter-Glo); type: cell-based; conditions: 72 hours, read-out: The half maximal inhibitory concentration IC50 against cells, Ba/F3 LMNA-NTRK1-F589L
T6 construct: fused on or other part: P02545 (Prelamin-A/C)

[3] = target: T7, BaF3 ETV6-NTRK3-G623R stably transfected cell line (Homo sapiens, UniProt Q16288, G623R, cells depend on it); assay: Cell proliferation inhibition (CellTiter-Glo); type: cell-based; conditions: 72 hours, read-out: The half maximal inhibitory concentration IC50 against cells, BaF3 ETV6-NTRK3-G623R
T7 construct: fused on or other part: P41212 (Transcription factor ETV6)

[4] = target: T8, Ba/F3 SLC34A2-ROS1-G2032R stably transfected cell line (Homo sapiens, UniProt P08922, G2032R, cells depend on it); assay: Cell proliferation inhibition (CellTiter-Glo); type: cell-based; conditions: 72 hours, read-out: The half maximal inhibitory concentration IC50 against cells, Ba/F3 SLC34A2-ROS1-G2032R
T8 construct: fused on or other part: O95436 (Sodium-dependent phosphate transport protein 2B)

[5] = In vivo pharmacokinetic test in mice; parameters: species or system male CD-1 mice; conditions: for AUC(0-t): read-out: Area under the curve AUC0-last; for Cmax: read-out: Peak concentration Cmax
How it was run: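 Male CD-1 mice, 7-9 weeks, given a single IV (3 mg/kg) or intragastric dose in 5% DMSO/10% solutol/85% water. Plasma drug levels measured by LC/MS/MS at multiple time points to derive PK parameters.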

[6] = male, CD-1, mouse, plasma, PO dose of 10 mL/kg

T1 sequence (P08922 28-2347 G2032R): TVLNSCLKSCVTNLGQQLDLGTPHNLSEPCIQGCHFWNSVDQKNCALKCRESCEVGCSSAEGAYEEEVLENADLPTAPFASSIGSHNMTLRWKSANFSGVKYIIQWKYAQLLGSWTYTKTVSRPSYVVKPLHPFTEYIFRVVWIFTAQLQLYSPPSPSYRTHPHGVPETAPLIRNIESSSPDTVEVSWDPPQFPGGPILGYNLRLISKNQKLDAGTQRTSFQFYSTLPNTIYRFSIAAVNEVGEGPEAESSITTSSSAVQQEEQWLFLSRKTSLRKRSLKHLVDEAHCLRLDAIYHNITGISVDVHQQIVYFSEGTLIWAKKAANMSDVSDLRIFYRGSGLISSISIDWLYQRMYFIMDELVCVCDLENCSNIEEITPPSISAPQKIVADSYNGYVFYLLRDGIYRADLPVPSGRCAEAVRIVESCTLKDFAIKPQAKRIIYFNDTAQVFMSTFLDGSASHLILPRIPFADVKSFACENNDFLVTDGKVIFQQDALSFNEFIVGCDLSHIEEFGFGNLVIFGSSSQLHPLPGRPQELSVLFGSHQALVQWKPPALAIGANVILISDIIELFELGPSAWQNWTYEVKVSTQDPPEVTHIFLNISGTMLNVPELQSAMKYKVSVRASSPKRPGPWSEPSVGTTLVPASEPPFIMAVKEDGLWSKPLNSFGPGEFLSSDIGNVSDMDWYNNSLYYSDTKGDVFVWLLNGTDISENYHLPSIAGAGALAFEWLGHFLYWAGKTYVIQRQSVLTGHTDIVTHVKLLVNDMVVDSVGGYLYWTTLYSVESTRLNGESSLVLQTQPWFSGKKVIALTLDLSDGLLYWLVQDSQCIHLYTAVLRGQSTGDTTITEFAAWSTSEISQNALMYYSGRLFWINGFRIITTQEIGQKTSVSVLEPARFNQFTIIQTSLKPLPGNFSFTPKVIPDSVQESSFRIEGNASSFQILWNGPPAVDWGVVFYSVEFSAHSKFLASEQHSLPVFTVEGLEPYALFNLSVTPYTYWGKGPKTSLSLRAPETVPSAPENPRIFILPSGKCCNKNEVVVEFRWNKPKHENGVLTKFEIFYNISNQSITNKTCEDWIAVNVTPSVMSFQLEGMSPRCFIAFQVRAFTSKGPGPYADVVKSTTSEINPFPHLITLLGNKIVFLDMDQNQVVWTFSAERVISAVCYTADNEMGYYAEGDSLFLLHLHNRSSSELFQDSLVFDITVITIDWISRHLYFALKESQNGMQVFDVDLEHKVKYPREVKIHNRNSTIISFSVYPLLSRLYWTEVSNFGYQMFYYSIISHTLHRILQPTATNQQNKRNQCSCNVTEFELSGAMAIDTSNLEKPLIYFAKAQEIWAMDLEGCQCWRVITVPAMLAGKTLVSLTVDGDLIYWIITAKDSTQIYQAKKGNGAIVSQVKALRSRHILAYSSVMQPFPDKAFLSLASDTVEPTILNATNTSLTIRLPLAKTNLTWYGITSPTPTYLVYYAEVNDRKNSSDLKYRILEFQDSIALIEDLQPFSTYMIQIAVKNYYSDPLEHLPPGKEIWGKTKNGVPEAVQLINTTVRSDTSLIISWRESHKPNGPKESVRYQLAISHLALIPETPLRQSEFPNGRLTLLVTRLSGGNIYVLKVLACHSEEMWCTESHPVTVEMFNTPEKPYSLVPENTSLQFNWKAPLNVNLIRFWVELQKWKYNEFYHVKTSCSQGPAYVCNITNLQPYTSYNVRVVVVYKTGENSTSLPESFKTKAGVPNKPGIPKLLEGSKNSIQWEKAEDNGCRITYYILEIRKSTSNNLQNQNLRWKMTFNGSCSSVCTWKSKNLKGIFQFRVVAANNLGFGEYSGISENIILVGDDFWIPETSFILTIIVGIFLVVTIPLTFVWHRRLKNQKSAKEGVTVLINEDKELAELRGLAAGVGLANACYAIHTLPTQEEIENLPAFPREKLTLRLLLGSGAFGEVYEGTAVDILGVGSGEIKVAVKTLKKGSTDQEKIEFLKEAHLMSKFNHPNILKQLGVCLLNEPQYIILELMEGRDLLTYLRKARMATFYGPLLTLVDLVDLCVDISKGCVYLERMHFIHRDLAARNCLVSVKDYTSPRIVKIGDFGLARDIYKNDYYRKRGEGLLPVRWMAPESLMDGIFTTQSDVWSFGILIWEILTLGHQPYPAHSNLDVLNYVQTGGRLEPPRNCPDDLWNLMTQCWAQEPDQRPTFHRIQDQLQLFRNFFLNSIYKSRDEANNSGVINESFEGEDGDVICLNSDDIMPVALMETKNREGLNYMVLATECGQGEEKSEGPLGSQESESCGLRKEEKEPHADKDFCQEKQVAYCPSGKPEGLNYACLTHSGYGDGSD
T6 sequence (P04629 whole entry F589L, the tested form may be a part): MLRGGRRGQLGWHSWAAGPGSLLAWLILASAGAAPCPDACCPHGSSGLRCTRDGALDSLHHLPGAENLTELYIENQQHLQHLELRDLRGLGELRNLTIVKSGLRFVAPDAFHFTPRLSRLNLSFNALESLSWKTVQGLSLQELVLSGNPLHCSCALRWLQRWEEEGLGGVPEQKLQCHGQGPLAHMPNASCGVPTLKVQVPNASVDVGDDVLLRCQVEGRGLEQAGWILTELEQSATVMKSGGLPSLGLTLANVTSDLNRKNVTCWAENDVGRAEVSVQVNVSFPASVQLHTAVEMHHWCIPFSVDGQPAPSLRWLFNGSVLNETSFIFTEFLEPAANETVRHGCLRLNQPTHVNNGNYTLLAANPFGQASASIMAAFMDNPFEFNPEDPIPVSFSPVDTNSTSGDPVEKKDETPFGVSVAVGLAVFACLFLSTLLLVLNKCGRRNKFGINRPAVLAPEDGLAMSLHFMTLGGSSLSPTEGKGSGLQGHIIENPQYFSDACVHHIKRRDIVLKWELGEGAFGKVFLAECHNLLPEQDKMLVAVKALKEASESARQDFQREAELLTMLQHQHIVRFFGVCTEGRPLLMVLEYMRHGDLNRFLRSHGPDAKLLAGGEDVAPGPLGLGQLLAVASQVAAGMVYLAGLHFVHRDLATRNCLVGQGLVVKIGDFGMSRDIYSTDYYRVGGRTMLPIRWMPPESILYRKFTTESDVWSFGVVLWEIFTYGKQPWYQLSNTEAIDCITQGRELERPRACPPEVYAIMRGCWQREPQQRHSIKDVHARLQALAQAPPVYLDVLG
T4 sequence (Q9UM73 19-1620): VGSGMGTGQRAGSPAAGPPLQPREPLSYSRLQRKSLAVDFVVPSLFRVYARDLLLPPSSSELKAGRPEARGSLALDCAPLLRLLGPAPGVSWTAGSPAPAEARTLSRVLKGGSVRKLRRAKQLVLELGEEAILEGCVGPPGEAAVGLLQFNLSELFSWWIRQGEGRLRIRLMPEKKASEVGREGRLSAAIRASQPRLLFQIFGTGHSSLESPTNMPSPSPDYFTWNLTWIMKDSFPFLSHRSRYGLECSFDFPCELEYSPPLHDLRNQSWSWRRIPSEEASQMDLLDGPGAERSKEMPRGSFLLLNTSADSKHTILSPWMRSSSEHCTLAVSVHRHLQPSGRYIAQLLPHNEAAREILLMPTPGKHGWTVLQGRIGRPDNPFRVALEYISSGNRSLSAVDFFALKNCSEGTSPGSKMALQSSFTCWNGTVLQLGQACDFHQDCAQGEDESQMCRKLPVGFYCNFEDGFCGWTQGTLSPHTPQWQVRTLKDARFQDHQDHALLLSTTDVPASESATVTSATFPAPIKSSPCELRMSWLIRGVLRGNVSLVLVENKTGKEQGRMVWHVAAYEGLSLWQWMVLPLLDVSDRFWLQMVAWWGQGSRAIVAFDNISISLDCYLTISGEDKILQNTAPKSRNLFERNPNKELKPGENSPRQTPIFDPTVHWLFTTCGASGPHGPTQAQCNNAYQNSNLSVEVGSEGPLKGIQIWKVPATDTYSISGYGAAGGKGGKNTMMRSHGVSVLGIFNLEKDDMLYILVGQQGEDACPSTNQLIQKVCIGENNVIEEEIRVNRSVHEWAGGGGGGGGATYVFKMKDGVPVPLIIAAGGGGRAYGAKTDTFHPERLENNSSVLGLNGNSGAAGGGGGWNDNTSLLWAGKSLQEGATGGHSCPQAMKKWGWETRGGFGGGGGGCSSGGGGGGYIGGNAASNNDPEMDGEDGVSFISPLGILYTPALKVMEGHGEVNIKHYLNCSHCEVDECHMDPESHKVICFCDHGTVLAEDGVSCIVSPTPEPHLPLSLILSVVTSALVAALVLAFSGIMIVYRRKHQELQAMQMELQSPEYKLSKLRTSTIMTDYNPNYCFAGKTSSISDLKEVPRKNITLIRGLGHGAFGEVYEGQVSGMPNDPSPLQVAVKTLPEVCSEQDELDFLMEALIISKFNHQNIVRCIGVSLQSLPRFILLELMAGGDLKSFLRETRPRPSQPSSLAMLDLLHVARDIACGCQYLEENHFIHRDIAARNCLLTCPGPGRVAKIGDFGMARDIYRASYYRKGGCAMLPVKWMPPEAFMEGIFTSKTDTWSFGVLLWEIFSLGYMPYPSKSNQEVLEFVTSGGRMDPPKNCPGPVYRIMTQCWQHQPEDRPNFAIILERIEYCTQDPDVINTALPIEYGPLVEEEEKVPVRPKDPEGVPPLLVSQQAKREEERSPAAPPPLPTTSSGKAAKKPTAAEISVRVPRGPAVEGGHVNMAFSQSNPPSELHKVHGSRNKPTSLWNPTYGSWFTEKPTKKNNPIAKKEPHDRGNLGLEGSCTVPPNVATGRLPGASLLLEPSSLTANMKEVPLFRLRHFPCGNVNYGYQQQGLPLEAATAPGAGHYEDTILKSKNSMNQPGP
T5 sequence (P04629 whole entry, stated change not applied, the tested form may be a part): as the sequence (P04629 whole entry F589L, the tested form may be a part) above, with L589F counted along it

SMILES	IC50 (Ros-G2032R) [nM]	IC50 (TrkA-G667C) [nM]	IC50 (TrkC) [nM]	IC50 (ALK) [nM]	GI50 [1] [nM]	GI50 [2] [nM]	GI50 [3] [nM]	GI50 [4] [nM]	Apparent clearance Cl ([5]; IV dose of 3 mg/kg) [mL/min/kg]	also measured
O=C1N[C@@H]2COC[C@@H]2Oc2ncc(F)cc2[C@H]2CCON2c2ccn3ncc1c3n2 [WX008A]	0.52	6.49	0.05	10.4	1.6	1.59	3.49	38.5	6.7	Vd ([5]; male, CD-1, mouse, plasma, IV dose of 3 mg/kg, read-out: Apparent volume of distribution Vd): 0.62 L/kg; AUC(0-t) ([5]; male, CD-1, mouse, plasma, IV dose of 3 mg/kg): 18.2 µM·h; half-life ([5]; male, CD-1, mouse, plasma, IV dose of 3 mg/kg, read-out: Half life T1/2 (converted)): 68.4 min; bioavailability ([5]; male, CD-1, mouse, plasma, PO dose of 10 mL/kg vs IV 3 mg/kg, read-out: Bioavailability F %): 65%; AUC(0-t) [5, 6]: 39.6 µM·h; Cmax [5, 6]: 12.2 µM; Tmax ([5]; male, CD-1, mouse, plasma, PO dose of 10 mL/kg, read-out: Time of peak concentration Tmax): 15 min
O=C1NC2(CC2)COc2ncc(F)cc2[C@H]2CCON2c2ccn3ncc1c3n2 [WX002A]	0.4	7	0.14	13	1.26	0.78	3.4	16.1	7.2	Apparent volume of distribution Vd ([5]; IV dose of 3 mg/kg): 0.49 L/kg; Area under the curve AUC0-last ([5]; IV dose of 3 mg/kg): 17.502 µM·h; Half life T1/2 ([5]; IV dose of 3 mg/kg): 45 min; Area under the curve AUC0-last ([5]; PO dose of 10 mL/kg): 29.787 µM·h; Time of peak concentration Tmax ([5]; PO dose of 10 mL/kg): 30 min; Bioavailability F % ([5]; PO dose of 10 mL/kg vs IV 3 mg/kg): 51%; Cmax ([5]; PO dose of 10 mL/kg): 9.14 µM
